Assay results as given in PubChem BioAssay (NCI).
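GI50: concentration for 50% inhibition of growth. TGI marks complete inhibition of growth.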

Key:
Assay in all cases: NCI anticancer screen, dose series, 384-well format; in the data active = GI50 below about 0.43 µM; inactive = the rest
ACHN renal = tested on: ACHN renal
SNB-75 CNS = tested on: SNB-75 CNS
HOP-62 NSCLC = tested on: HOP-62 NSCLC
MALME-3M melanoma = tested on: MALME-3M melanoma
HCC-2998 colon = tested on: HCC-2998 colon
MCF7 breast = tested on: MCF7 breast
TK-10 renal = tested on: TK-10 renal
SF-268 CNS = tested on: SF-268 CNS
M14 melanoma = tested on: M14 melanoma
OVCAR-4 ovarian = tested on: OVCAR-4 ovarian
SF-295 CNS = tested on: SF-295 CNS
NCI-H522 lung = tested on: NCI-H522 lung
RPMI-8226 leukemia = tested on: RPMI-8226 leukemia
K-562 leukemia = tested on: K-562 leukemia
OVCAR-8 ovarian = tested on: OVCAR-8 ovarian
NCI-H322M lung = tested on: NCI-H322M lung
MDA-MB-468 breast = tested on: MDA-MB-468 breast
KM12 colon = tested on: KM12 colon
MOLT-4 leukemia = tested on: MOLT-4 leukemia
EKVX NSCLC = tested on: EKVX NSCLC
NCI/ADR-RES ovarian = tested on: NCI/ADR-RES ovarian
HCT-116 colon = tested on: HCT-116 colon
786-0 renal = tested on: 786-0 renal
DU-145 prostate = tested on: DU-145 prostate
SK-MEL-28 melanoma = tested on: SK-MEL-28 melanoma
HOP-92 NSCLC = tested on: HOP-92 NSCLC
SW-620 colon = tested on: SW-620 colon
BT-549 breast = tested on: BT-549 breast
IGROV1 ovarian = tested on: IGROV1 ovarian
NCI-H23 lung = tested on: NCI-H23 lung
SF-539 CNS = tested on: SF-539 CNS
MDA-MB-435 melanoma = tested on: MDA-MB-435 melanoma
T-47D breast = tested on: T-47D breast
PC-3 prostate = tested on: PC-3 prostate
HCT-15 colon = tested on: HCT-15 colon
RXF 393 renal = tested on: RXF 393 renal
HS 578T breast = tested on: HS 578T breast
UACC-62 melanoma = tested on: UACC-62 melanoma
CAKI-1 renal = tested on: CAKI-1 renal
A549 NSCLC = tested on: A549 NSCLC
SN12C renal = tested on: SN12C renal
HL-60(TB) leukemia = tested on: HL-60(TB) leukemia
LOX IMVI melanoma = tested on: LOX IMVI melanoma
SR leukemia = tested on: SR leukemia
SNB-19 CNS = tested on: SNB-19 CNS
CCRF-CEM leukemia = tested on: CCRF-CEM leukemia
SK-MEL-5 melanoma = tested on: SK-MEL-5 melanoma
SK-OV-3 ovarian = tested on: SK-OV-3 ovarian
HT29 colon = tested on: HT29 colon
COLO 205 colon = tested on: COLO 205 colon
UO-31 renal = tested on: UO-31 renal
MDA-MB-231 breast = tested on: MDA-MB-231 breast
NCI-H460 NSCLC = tested on: NCI-H460 NSCLC
OVCAR-3 ovarian = tested on: OVCAR-3 ovarian
U251 glioblastoma = tested on: U251 glioblastoma

O=C(NCc1ccc(S(=O)(=O)c2cc(F)cc(F)c2)cc1)c1ccc2nccn2c1
11.4 nM: TGI (OVCAR-4 ovarian)
27.4 nM: TGI (MALME-3M melanoma)
12.4 nM: TGI (EKVX NSCLC)
26.3 nM: TGI (NCI-H460 NSCLC)
43.5 nM: TGI (HOP-92 NSCLC)
18.3 nM: TGI (MDA-MB-231 breast)
10.2 nM: TGI (HT29 colon)
< 10 nM: TGI (ACHN renal) | TGI (SNB-75 CNS) | TGI (HOP-62 NSCLC) | TGI (HCC-2998 colon) | TGI (MCF7 breast) | TGI (TK-10 renal) | TGI (SF-268 CNS) | TGI (M14 melanoma) | TGI (SF-295 CNS) | TGI (NCI-H522 lung) | TGI (RPMI-8226 leukemia) | TGI (K-562 leukemia) | TGI (OVCAR-8 ovarian) | TGI (NCI-H322M lung) | TGI (MDA-MB-468 breast) | TGI (KM12 colon) | TGI (MOLT-4 leukemia) | TGI (NCI/ADR-RES ovarian) | TGI (HCT-116 colon) | TGI (786-0 renal) | TGI (DU-145 prostate) | TGI (SK-MEL-28 melanoma) | TGI (SW-620 colon) | TGI (BT-549 breast) | TGI (IGROV1 ovarian) | TGI (NCI-H23 lung) | TGI (SF-539 CNS) | TGI (MDA-MB-435 melanoma) | TGI (T-47D breast) | TGI (PC-3 prostate) | TGI (HCT-15 colon) | TGI (RXF 393 renal) | TGI (HS 578T breast) | TGI (UACC-62 melanoma) | TGI (CAKI-1 renal) | TGI (SN12C renal) | TGI (HL-60(TB) leukemia) | TGI (SR leukemia) | TGI (SNB-19 CNS) | TGI (CCRF-CEM leukemia) | TGI (SK-MEL-5 melanoma) | TGI (SK-OV-3 ovarian) | TGI (COLO 205 colon) | TGI (UO-31 renal) | TGI (OVCAR-3 ovarian) | TGI (U251 glioblastoma)
active: GI50 (ACHN renal) < 10 nM | GI50 (SNB-75 CNS) < 10 nM | GI50 (HOP-62 NSCLC) < 10 nM | GI50 (MALME-3M melanoma) < 10 nM | GI50 (HCC-2998 colon) < 10 nM | GI50 (MCF7 breast) < 10 nM | GI50 (TK-10 renal) < 10 nM | GI50 (SF-268 CNS) < 10 nM | GI50 (M14 melanoma) < 10 nM | GI50 (OVCAR-4 ovarian) < 10 nM | GI50 (SF-295 CNS) < 10 nM | GI50 (NCI-H522 lung) < 10 nM | GI50 (RPMI-8226 leukemia) < 10 nM | GI50 (K-562 leukemia) < 10 nM | GI50 (OVCAR-8 ovarian) < 10 nM | GI50 (NCI-H322M lung) < 10 nM | GI50 (MDA-MB-468 breast) < 10 nM | GI50 (KM12 colon) < 10 nM | GI50 (MOLT-4 leukemia) < 10 nM | GI50 (EKVX NSCLC) < 10 nM | GI50 (NCI/ADR-RES ovarian) < 10 nM | GI50 (HCT-116 colon) < 10 nM | GI50 ([…]-0 renal) < 10 nM | GI50 (DU-145 prostate) < 10 nM | GI50 (SK-MEL-28 melanoma) < 10 nM | GI50 (HOP-92 NSCLC) 20.4 nM | GI50 (SW-620 colon) < 10 nM | GI50 (BT-549 breast) < 10 nM | GI50 (IGROV1 ovarian) < 10 nM | GI50 (NCI-H23 lung) < 10 nM | GI50 (SF-539 CNS) < 10 nM | GI50 (MDA-MB-435 melanoma) < 10 nM | GI50 (T-47D breast) < 10 nM | GI50 (PC-3 prostate) < 10 nM | GI50 (HCT-15 colon) < 10 nM | GI50 (RXF 393 renal) < 10 nM | GI50 (HS 578T breast) < 10 nM | GI50 (UACC-62 melanoma) < 10 nM | GI50 (CAKI-1 renal) < 10 nM | GI50 (A549 NSCLC) < 10 nM | GI50 (SN12C renal) < 10 nM | GI50 (HL-60(TB) leukemia) < 10 nM | GI50 (LOX IMVI melanoma) < 10 nM | GI50 (SR leukemia) < 10 nM | GI50 (SNB-19 CNS) < 10 nM | GI50 (CCRF-CEM leukemia) < 10 nM | GI50 (SK-MEL-5 melanoma) < 10 nM | GI50 (SK-OV-3 ovarian) < 10 nM | GI50 (HT29 colon) < 10 nM | GI50 (COLO 205 colon) < 10 nM | GI50 (UO-31 renal) < 10 nM | GI50 (MDA-MB-231 breast) < 10 nM | GI50 (NCI-H460 NSCLC) 11.6 nM | GI50 (OVCAR-3 ovarian) < 10 nM | GI50 (U251 glioblastoma) < 10 nM
25.7 nM: TGI (LOX IMVI melanoma)
20.3 nM: TGI (A549 NSCLC)
